We go through three compounds from paper PMC5600443 (Biochemistry and Biophysics Reports, 2016).

Format in all cases: cell-based
Experiment [1] deals with rat α1/β1 (Rα1/β1) Na^+,K^+pump (Rattus norvegicus, UniProt P06685). The note with it: for Efficiency coefficient A = 100*IC50 Na,K pump/IC50 proliferation, Rα1/β1 pump: Rα1/β1 pump IC50 versus RH-35 cell proliferation IC50.
Experiment [2] deals with rat α2/β1 (Rα2/β1) Na^+,K^+pump (Rattus norvegicus, UniProt P06686). As to conditions: Rα2/β1 pump IC50 versus RH-35 cell proliferation IC50.
For experiment [3], the system named is RH-35 rat liver cancer cell line. As to the kind of experiment: MTT assay, inhibition of proliferation of RH-35 rat liver cancer cells. As to conditions: read-out: Cell proliferation RH-35 IC50, rat RH-35 cells, 72 h, average of 3 independent experiments + SEM.

“And” between values parts separate entries of the source, which are not always exact repeats. Equal values may be shown once.

Consider `CNCCCNC(=O)O[C@H]1CC[C@@]2(C)[C@H](CC[C@@H]3[C@@H]2CC[C@]2(C)[C@@H](c4ccc(=O)oc4)CC[C@]32O)C1` [BF601, Bufalin-3-yl [3-(methylamino)propyl]carbamate], for which, in experiment [1], the “Efficiency coefficient A = 100*IC50 Na,K pump/IC50 proliferation, Rα1/β1 pump” value was found to be 0.35. In experiment [2], the “Efficiency coefficient A = 100*IC50 Na,K pump/IC50 proliferation, Rα2/β1 pump” value is 0.92. Further, in experiment [3], the IC50 was ~30.8 µM and 30.8 µM.
Regarding Bufalin-3-MeON-arabinopyranoside [BAP], in experiment [1], the “Efficiency coefficient A = 100*IC50 Na,K pump/IC50 proliferation, Rα1/β1 pump” value is reported as 0.10. In experiment [2], the “Efficiency coefficient A = 100*IC50 Na,K pump/IC50 proliferation, Rα2/β1 pump” value is given as 0.16. Also, in experiment [3], the IC50 was ~67.2 µM and 67.2 µM.
As to `CC12CCC(OC(=O)NCCCn3ccnc3)CC1CCC1C2CCC2(C)C(c3ccc(=O)oc3)CCC12O` (centres unmarked) [BF238, Bufalin-3-yl [3-(1h-imidazol-1-yl)propyl]carbamate], the “Effect on Rα1/β1 pump current” value in experiment [1] (0.05 µM drug) is given as “hardly affected”. For the same compound, in experiment [1] (0.50 µM drug), the “Inhibition of Rα1/β1 pump current” value is listed as “more than 50%”. The “Efficiency coefficient A = 100*IC50 Na,K pump/IC50 proliferation, Rα1/β1 pump” value in experiment [1] is 0.88. Moreover, the “Efficiency coefficient A = 100*IC50 Na,K pump/IC50 proliferation, Rα2/β1 pump” value in experiment [2] is 2.64. Besides, in experiment [3], the IC50 was 37.4 ± 3.1 µM.
